According to patent US11530211B2, “Dihydroindolizinone derivative” (DAIICHI SANKYO COMPANY, LIMITED, priority 2018, dated 2022):
pEC50: −log10 of the molar value.

What was measured:
[1] = system: human iPS cell Toe strain; assay: Effect to promote differentiation from human iPS cells into insulin-producing cells (insulin-positive cell rate, imaging); format: cell-based; settings: Homo sapiens, efficacy of 10 μM of the compound of Example 1 taken as 100%; 0.01 to 10 μM; read-out: E050
Source text: The evaluation system of the effect (efficacy) to promote differentiation from human iPS cells into insulin-producing cells was constructed with reference to known information (Non Patent Document 6). Further, the medium used in each differentiation stage was also produced with reference to known information (differentiation media A to E (Media A to E) described in Non Patent Document 6 were used respectively for stages 1 to 5; however, a medium free from GLP-1 receptor agonist and nicotinamide was used as differentiation medium E).
In order to evaluate the efficacy of each compound, the compound of Example 1 was used as a positive control, and dimethylsulfoxide (DMSO) (SIGMA, D2650) with a final concentration of 0.1% was used as a control untreated with compounds. […] In the following evaluation, the compound solutions were added to the medium to 0.1% that is the final concentration of DMSO. First, induction from human iPS cell Toe strain (National Institutes of Biomedical Innovation, Health and Nutrition) into cells on day 7 of culture (2 days after replacement with differentiation medium C (cells in the differentiation process from FOXA2-positive primitive gut tube cells into PDX1-positive pancreatic progenitor cells)) was performed according to the method of Non Patent Document 6 for “inducing differentiation from human iPS cells into pancreatic β cells”, and the cells were collected and thereafter stored in liquid nitrogen using Bambanker (NIPPON Genetics Co, Ltd.) at 1×10^7 cells/mL/tube, to produce a cell stock for evaluation. The cell stock was dissolved at the start of the evaluation of efficacy, suspended in differentiation medium C for stage 3 (DMEM high glucose (Life technologies, 11965092), 0.25 μM SANT-1, 0.1 μM LDN193189 (Stemgent, 04-0074), 10 μM SB431542, 2 μM Retinoic acid (Stemgent, 04-0021), 1% B27 serum free supplement (Life technologies, 17504044) and thereafter seeded in a 96-well plate (Corning, #3340) coated with Synthemax II (Corning, #5656) at 1×10^5 cells/well. After culturing for 2 days, the medium was removed, and new differentiation medium C for stage 3 with the compound or only DMSO added was added thereto at 100 μL/well. After culturing for 2 days, the medium was removed, and new differentiation medium D for stage 4 (DMEM high glucose, 0.1 μM LDN193189, 5 μM TGF-β type I receptor kinase inhibitor II (Calbiochem 616452), 0.3 μM (−)-indolactam V (Enzo life science ALX-420-011-C300), 1% B27 serum free supplement) with the compound or only DMSO added was added thereto at 100 μL/well. After culturing for 2 to 3 days, the medium was removed, and new differentiation medium E for stage 5 (GLP-1 receptor agonist and nicotinamide-free; Knockout […] (Life technologies, 12660012), 1% B27 serum free supplement) with the compound or only DMSO added was added thereto at 200 μL/well. After culturing for 2 days, the medium was removed, and a 4% paraformaldehyde phosphorus acid buffer (Wako, 163-20145) was added thereto at 150 μL/well and left standing for 30 to 60 minutes at room temperature to fix the cells. A phosphorus acid buffer (PBS) (Takara, T9181) containing 1% Triton X-100 (Sigma, T8787) was left standing for 15 minutes at room temperature, then washed with PBS-T (Takara, T9183), and was blocked for 1 hour using 20% Blocking One (Nacalai tesque, Tokyo, Japan) diluted with PBS-T at room temperature. After the removal of Blocking One, guinea pig anti-insulin antibody (Abcam, ab7842) diluted 200-fold with 20% Blocking One was added thereto at 50 μL/well, followed by standing at 4° C. overnight. After washing with PBS-T 3 times, […]-labeled anti-guinea pig antibody (Life Technologies, A11075) diluted 1000-fold with 20% Blocking One and 6-diamidino-2-phenylindole (DAPI) (Roche Diagnostics, Basel, Switzerland) were added thereto, followed by standing at room temperature for 2 hours. After washing with PBS-T 3 times, the fluorescence images of the cells were analyzed. […]

ZDF disease rats = assay: Glucose tolerance test after 4 weeks repeated oral administration in ZDF rats; format: in vivo, rat; settings: 10 mg/kg orally once a day for 4 weeks; Day 28; 60 minutes after 2 g/kg glucose loading minus before loading; male ZDF disease rats
Method: After repeated oral administration of the compound according to Example 9 to 8 week-old male ZDF disease rats (CHARLES RIVER LABORATORIES JAPAN, INC.) for 4 weeks (from Day 1 to 28), a glucose tolerance test was conducted on Day 28 to investigate the effect to improve the pathological conditions of diabetes. On Day 0, the ZDF disease rats were subjected to measurement of blood sugar, insulin value, and body weight, as needed, and were grouped by multivariable block assignment. The experiments were conducted in a total of 3 groups of 4 male ZDF Lean rats (lean group), a group of 8 ZDF disease rats with a 0.5 w/v % methylcellulose 400 solution (which will be hereinafter referred to as 0.5% MC) administered (vehicle group), and a group of 8 ZDF disease rats with the compound of Example 9 administered (Example 9 group). The compound according to Example 9 was suspended in 0.5% MC and was orally administered 10 mg/kg once a day.
The glucose tolerance test was conducted as follows. […] Before the glucose loading and 60 minutes after the glucose loading, blood was collected from the tail vein, and the blood sugar was measured.
The blood sugar was measured using glucose C2-Test Wako (Cat No. 437-90902 for 700 times, available from Wako Pure Chemical Industries, Ltd).

UCHL1 = molecular target: T1, UCHL1 (Homo sapiens, UniProt P09936); assay: Evaluation of UCHL1 activation (ubiquitin-AMC hydrolysis); settings: test compound 10 μM; control (DMSO) = 100; fluorescence increment 10 minutes to 2 hours; n=3
T1 sequence (P09936 1-223): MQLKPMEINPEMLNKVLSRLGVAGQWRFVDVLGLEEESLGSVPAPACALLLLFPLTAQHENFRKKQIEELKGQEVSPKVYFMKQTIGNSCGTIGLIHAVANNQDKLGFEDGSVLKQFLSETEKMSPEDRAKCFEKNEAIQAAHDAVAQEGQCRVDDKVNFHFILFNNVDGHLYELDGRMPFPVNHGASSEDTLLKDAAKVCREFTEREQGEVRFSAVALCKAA
Method: Using dimethylsulfoxide (DMSO) (SIGMA, D2650) as a control untreated with compounds (which will be hereinafter referred to as control), each test compound was dissolved in DMSO in use. DMSO and the test compound solutions were each added to the enzymatic reaction solution to a final concentration of 2%. […] The amount of fluorescence (excitation wavelength: 350 nm and fluorescence wavelength: 440 nm) of AMC generated due to hydrolysis of the fluorescence-labeled substrate was measured 10 minutes and 2 hours after the start of the enzymatic reaction, to calculate the increment in amount of fluorescence by subtraction between the two.
The amount of fluorescence of AMC was measured using Envision (PerkinElmer). The increment in amount of fluorescence of the control was taken as 100%, and the increment in amount of fluorescence of each test compound was expressed as a percentage (%) based on this, to obtain an enzymatic activity value. Enzymatic activity value (%)={(Amount of fluorescence increment of each test compound)/(Amount of fluorescence increment of control)}×100

Compound: O=C1CCC(C(=O)Nc2ncc(-c3ccc(OC(F)(F)F)cc3)s2)n2cccc21 (stereo not drawn) [Example 9, 8-Oxo-N-[5-[4-(trifluoromethoxy)phenyl]thiazol-2-yl]-6,7-dihydro-5H-indolizine-5-carboxamide]
- pEC50 [1]: 6.64
- Δ Plasma glucose (ZDF disease rats): -275.8 mg/dL
- Enzyme activity (c/o) (UCHL1): 270 c/o
